According to patent publication US20250090875A9, “IMMUNOSTIMULATORY COMPOUNDS AND CONJUGATES” (Seagen Inc., priority 2021, published 2025):

Columns and labels:
[1] = biological target: T1, hTLR7 (Homo sapiens, UniProt Q9NYK1); test: HEK Blue hTLR7 cell assay of free TLR7/8 agonists; type: cell-based; details: for EC50: HEK Blue hTLR7 cells, free agonist; for TLR7/TLR8: ratio of EC50 hTLR7 to EC50 hTLR8
T1 construct: expressed in transfected cells; host or cells: HEK Blue hTLR7 cells
T1 sequence (Q9NYK1 27-1049): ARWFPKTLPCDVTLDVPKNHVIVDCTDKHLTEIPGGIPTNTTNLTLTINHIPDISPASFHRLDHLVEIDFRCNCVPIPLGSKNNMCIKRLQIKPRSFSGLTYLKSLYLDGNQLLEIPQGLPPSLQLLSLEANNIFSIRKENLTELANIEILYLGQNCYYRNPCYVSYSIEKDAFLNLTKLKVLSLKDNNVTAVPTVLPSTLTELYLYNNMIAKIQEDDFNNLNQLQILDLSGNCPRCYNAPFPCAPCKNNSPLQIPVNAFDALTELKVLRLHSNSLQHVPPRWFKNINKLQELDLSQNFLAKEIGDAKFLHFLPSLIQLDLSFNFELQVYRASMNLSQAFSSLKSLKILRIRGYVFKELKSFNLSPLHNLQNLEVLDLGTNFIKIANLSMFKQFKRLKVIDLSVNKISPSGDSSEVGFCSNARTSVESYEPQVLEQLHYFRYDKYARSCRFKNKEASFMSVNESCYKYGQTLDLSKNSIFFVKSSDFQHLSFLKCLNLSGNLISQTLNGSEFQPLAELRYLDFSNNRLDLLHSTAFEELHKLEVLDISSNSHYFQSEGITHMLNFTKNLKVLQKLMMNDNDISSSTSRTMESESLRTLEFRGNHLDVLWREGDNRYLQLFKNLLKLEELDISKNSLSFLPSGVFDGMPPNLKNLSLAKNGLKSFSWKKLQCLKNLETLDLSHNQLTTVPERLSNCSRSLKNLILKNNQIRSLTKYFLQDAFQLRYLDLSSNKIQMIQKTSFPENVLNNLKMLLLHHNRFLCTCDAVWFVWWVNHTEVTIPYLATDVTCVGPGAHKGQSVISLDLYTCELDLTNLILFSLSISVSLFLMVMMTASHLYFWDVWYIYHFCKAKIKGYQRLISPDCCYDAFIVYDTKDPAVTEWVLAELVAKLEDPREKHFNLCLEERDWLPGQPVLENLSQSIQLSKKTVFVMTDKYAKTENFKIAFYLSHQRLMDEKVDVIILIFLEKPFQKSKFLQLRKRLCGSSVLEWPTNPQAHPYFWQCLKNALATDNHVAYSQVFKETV
Description: (§1) This example covers toll-like receptor 7 (TLR7) and toll-like receptor 8 (TLR8) selectivity of imidazoquinoline agonists. Assessment of TLR7 and TLR8 selectivity for the free TLR7/8 agonists was performed using HEK Blue hTLR7 and hTLR8 cells over a large dose range of compounds. […] Activities were determined based on calculated EC50 (in μM) in each cell line, and are summarized in TABLE 4 below, with columns providing targets and rows providing compounds.

[2] = biological target: T2, hTLR8 (Homo sapiens, UniProt Q9NR97); test: HEK Blue hTLR8 cell assay of free TLR7/8 agonists; type: cell-based; details: HEK Blue hTLR8 cells, free agonist
T2 construct: expressed in transfected cells; host or cells: HEK Blue hTLR8 cells
T2 sequence (Q9NR97 27-1041): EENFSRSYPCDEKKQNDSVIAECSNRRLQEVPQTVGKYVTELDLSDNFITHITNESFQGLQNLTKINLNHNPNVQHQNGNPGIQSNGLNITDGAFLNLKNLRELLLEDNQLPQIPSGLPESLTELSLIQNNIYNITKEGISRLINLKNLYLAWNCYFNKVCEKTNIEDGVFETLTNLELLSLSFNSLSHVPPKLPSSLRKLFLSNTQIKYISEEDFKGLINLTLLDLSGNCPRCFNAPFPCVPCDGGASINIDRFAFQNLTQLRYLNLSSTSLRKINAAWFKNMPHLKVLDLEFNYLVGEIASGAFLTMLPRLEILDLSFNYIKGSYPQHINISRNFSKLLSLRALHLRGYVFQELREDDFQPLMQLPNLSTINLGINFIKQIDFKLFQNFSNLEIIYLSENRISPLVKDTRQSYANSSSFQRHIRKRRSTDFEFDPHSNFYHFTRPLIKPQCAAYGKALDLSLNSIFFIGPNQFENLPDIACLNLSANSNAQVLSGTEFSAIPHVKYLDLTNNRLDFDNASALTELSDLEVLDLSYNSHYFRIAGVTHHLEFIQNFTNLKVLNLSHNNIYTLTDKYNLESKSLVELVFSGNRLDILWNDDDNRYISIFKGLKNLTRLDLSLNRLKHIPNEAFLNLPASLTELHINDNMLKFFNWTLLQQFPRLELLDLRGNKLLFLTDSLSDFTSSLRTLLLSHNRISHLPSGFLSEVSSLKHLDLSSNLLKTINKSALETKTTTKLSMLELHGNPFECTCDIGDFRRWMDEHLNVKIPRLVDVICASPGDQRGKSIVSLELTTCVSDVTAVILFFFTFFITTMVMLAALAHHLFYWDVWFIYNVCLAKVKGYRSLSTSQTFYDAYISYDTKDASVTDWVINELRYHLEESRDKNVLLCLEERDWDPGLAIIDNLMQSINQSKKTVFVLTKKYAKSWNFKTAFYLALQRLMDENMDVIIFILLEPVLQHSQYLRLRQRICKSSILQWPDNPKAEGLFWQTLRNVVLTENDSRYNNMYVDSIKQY
Description: as §1

[3] = system: primary human PBMCs; test: Cytokine induction in primary human PBMCs by small molecule TLR7/8 agonists (Luminex); type: cell-based; details: free drug
Description: This example covers dose dependent human immune cell activation by small molecule TLR7/8 agonists. Primary human PBMCs were isolated from peripheral whole blood from human donors and were subjected to treatment with increasing concentrations of the agonists diluted in PBS. Cell culture supernatants were harvested 24 h after treatment and analyzed for induction of cytokines via multiplex ELISAs (Luminex).
Several small molecule TLR7/8 agonists were assessed for their ability to activate human immune cells in a dose dependent manner. Primary human PBMCs were isolated from peripheral whole blood from human donors and were subjected to treatment with increasing concentrations of the agonists diluted in PBS. 24 h after treatment cell culture supernatants were harvested and analyzed for induction of cytokines via multiplex ELISAs (Luminex).

[4] = SEC analysis of ADC aggregation (high molecular weight species) in plasma; type: physicochemical; details: ADC incubated with human or mouse plasma, FIG. 9
Description: Method I: Size-exclusion chromatography (SEC) was performed with a Waters ACQUITY UPLC system and an Acquity UPLC Protein BEH SEC Column, (200 Å, 1.7 μm, 4.6×150 mm, PN: 186005225). The mobile phase used was 7.5% isopropanol in 92.5% aqueous (25 mM sodium phosphate, 350 mM NaCl, pH 6.8), v/v. Elution was performed isocratically at a flow rate of 0.4 mL/min at ambient temperature.
To determine if any of these differences in activity potentially resulted from increases in aggregation as a subsequent result of changes in charge, SEC analysis was performed. ADCs containing either S18a (methyl ester) or S18b (carboxylic acid) were incubated with both human or mouse plasma and assessed for the formation of high molecular weight species (HMW) over time.

[5] = system: Renca tumors; test: Renca kidney carcinoma model in Balb/c mice; type: in vivo, mouse; details: for loss of potency, C4-linked vs N1-linked conjugate: dose increase of C4-linked conjugate needed to match 2 mg/kg N1-linked conjugate
Description: The difference in anti-tumor activity of the S18a and S18b conjugates was also assessed in the Renca kidney model. In this model, mice bearing Renca tumors were treated q7dx3 when tumors reached ˜100 mm^3 as indicated, and followed for mean group tumor growth (FIG. 14, top) and survival (FIG. 14, bottom) over time.
This example covers cancer treatment with EphA2 targeted TLR agonists. […] Balb/c mice were implanted with Renca tumor cells and when cells reached 100 mm^3 they were treated Q7dx3 treatments with 2.4 mg/kg of the indicated IDC, either non targeting isotype or an EphA2 targeting mAb.

[6] = system: CT26 tumors; type: in vivo
Text: This example covers in vivo assessments of anti-tumor activity of ADCs with TLR7/8 agonists. An in vivo syngeneic system was used to assess the ability of the ADCs having TLR ⅞ agonists as the payload to induce immune responses and drive an anti-tumor immune response using a subcutaneous, heterotopic mouse colon carcinoma model (a CT26 system). Female Balb/c mice were implanted with 1×10^5 CT26 cells sub-cutaneously in the flank on day 0. When mean tumor size of 100 mm^3 (measured using the formula: Volume (mm^3)=0.5*Length*Width^2 where length is the longer dimension) was reached, the mice were randomized into treatment groups of 6 mice per group. Animals were then treated intraperitoneally with the indicated treatment every 7 days, for 3 doses total. Stock concentrations of the ADCs were diluted to the appropriate concentration and injected into animals in 100 μL volumes. Tumor length and width and mouse weights were measured throughout the study and tumor volume was calculated using the formula above. Animals were followed until tumor volume reached 1000 mm^3, when animals were then euthanized.

[7] = system: plasma cytokines; test: Systemic plasma cytokine induction in non-tumor bearing Balb/c mice; type: in vivo, mouse
[8] = system: plasma cytokines; test: Systemic cytokine response in CT26-tumor bearing mice; type: in vivo, mouse
Description: In addition to analyzing this response in non-tumor bearing animals simply on systemic immune activation, the C4/N1-linked TLR7/8 drug antibody conjugates were also administered to CT26-tumor bearing animals to determine how the linkage site affects cytokine response and anti-tumor response. The results are shown in FIG. 17, which provides MIP1b (top panel) and TNFα (bottom panel) responses generated with N1-(cmpd 9) and C4-(cmpd 11) linked compounds conjugated to targeting and non-targeting antibodies, as well as for untreated cells. […] This was true for targeted and non-targeted control conjugates.

[9] = tumor/immune targeted mAb, 2 mg/kg every 7 days, 3 doses, FIG. 38

Structure (SMILES)	EC50 [1]	TLR7/TLR8 [1]	EC50 [2]	IL12p40 and IL1β responses ([3]; FIG. 5)	potency and activity of cytokine induction (IL6, TNFα, MCP1, IP10) ([3]; ranking, FIG. 30)	aggregation (formation of high molecular weight species over time) [4]	tumor growth and survival ([5]; ADC, q7dx3 from ~100 mm^3, FIG. 14)	animals reaching complete tumor cures ([6]; EphA2 targeting mAb)	anti-tumor activity and tumor growth delay ([6]; EphA2 targeting mAb or isotype, FIGS. 35, 36)	animals fully cured [6, 9]	median tumor volume (tumor growth delay) [6, 9]	tumor growth ([5]; EphA2 targeting mAb or isotype, Q7dx3, 2-2.4 mg/kg)	loss of potency, C4-linked vs N1-linked conjugate [5]	loss of potency, C4-linked vs N1-linked conjugate ([5]; listed as Compound 11)	IL6 and TNFα levels, C4 vs N1 linkage ([7]; immune-targeted ADC, 2 mg/kg intraperitoneal)	reduction of systemic cytokine induction (MCP1, IP10, MIP1a, MIP1b, RANTES), C4 vs N1 linkage ([7]; immune-targeted ADC, 2 mg/kg intraperitoneal, plasma 3/6/24 h)	systemic cytokines (MIP1β, TNFα), C4 vs N1 linkage ([7]; non-targeting ADC, FIG. 16)	systemic activation (majority of cytokines), C4 vs N1 linkage ([8]; targeted and non-targeted control conjugates, FIG. 17)	TNFα and MIP1β, C4 vs N1 linkage ([8]; targeted antibody conjugate)
CCCCc1nc2c(N)nc3cc(C(=O)OC)ccc3c2n1CCCCCN [S14a]	2.53 µM	0.28	8.84 µM	–	–	–	–	–	–	–	–	–	–	–	–	–	–	–	–
CCCCc1nc2c(N)nc3cc(C(=O)OC)ccc3c2n1Cc1ccc(CN(C)C)cc1 [S18a]	0.44 µM	0.04	10.3 µM	lower responses of both cytokines	other two most potent compounds	no significant difference in the amounts of aggregation	some tumor growth benefit though no real survival benefit	–	–	–	–	–	–	–	–	–	–	–	–
CCCCc1nc2c(NC(=O)OCc3ccc(O[C@H]4O[C@H](CO)[C@@H](O)[C@H](O)[C@@H]4O)c(NC(=O)CCNC(=O)[C@H](CCCCNC(=O)CCOCCOCCOCCOCCOCCOCCOCCOCCOCCOCCOCCOC)NC(=O)CCN4C(=O)C=CC4=O)c3)nc3cc(C(=O)O)ccc3c2n1Cc1ccc(CN(C)C)cc1 [cmpd 11, 2-butyl-1-(4-((dimethylamino)methyl)benzyl)-4-((((3-((S)-44-(3-(2,5-dioxo-2,5-dihydro-1H-pyrrol-1-yl)propanamido)-38,45-dioxo-2,5,8,11,14,17,20,23,26,29,32,35-dodecaoxa-39,46-diazanonatetracontan-49-amido)-4-(((2R,3 S,4S,5 S,6R)-3,4,5-trihydroxy-6-(hydroxymethyl)tetrahydro-2H-pyran-2-yl)oxy)benzyl)oxy)carbonyl)amino)-1H-imidazo[4,5-c]quinoline-7-carboxylic acid]	–	–	–	–	–	–	–	50%	all animals benefiting from tumor growth delay	no cures	advantage with the TLR7/8 containing IDC vs the naked tumor/immune targeted mAb in terms of tumor growth delay	substantial tumor growth delayed noted for several of the animals	~4 ×	approximately 4 ×	no changes in IL6 or TNFα levels	4.8 -fold	greatly diminished systemic cytokines and non-specific uptake	reduced systemic activation	equivalent for TNFα but showed benefit for MIP1β
